According to patent US9416115B2, “Fused heterocyclic compounds as ion channel modulators” (Gilead Sciences, Inc., priority 2013, dated 2016):
Like-named read-outs stand apart in the source and are kept apart here.

Columns and labels:
Assay type in all cases: cell-based
hNav1.1 (SCN1A) = hNav1.1 (SCN1A) (Homo sapiens, UniProt P35498); test: Use-dependent inhibition of the CNS Nav1.1 sodium channel; settings: use-dependent block, 25 Hz, pulse 20, read-out: Nav1.1 UDB 25 Hz 10 uM
Procedure: HEK-293 cells stably expressing wild-type (WT) hNav1.1 (SCN1A, NCBI# AB09354) were obtained from Millipore (Cat. # CYL3009) were used to record INa. Cells are maintained with standard tissue culture procedures and stable channel expression is maintained with 400 ug/mL G418 in the culture medium. Unless otherwise noted, all reagents are purchased from Sigma-Aldrich (St Louis, Mo., U.S.A.).
Assays measuring Use-Dependent Block (UDB) of Nav1.2 are performed on an automated electrophysiology platform, QPatch 16X or QPatch HT (Sophion Bioscience, Copenhagen, Denmark), using the whole cell patch clamp technique to measure currents through the cell membrane. Series resistance compensation is set to 100% and series resistance and whole-cell compensation are performed automatically. Currents stored in the Sophion Bioscience Oracle database (Sophion Bioscience, Copenhagen, Denmark). Analysis is performed using QPatch Assay software and data are compiled in Excel 2010 (Microsoft, Seattle, Wash., U.S.A.).
The internal (pipette) solution consists of (in mM) 105 CsF, 10 NaF, 20 CsCl, 2 EGTA, 10 HEPES, 10 Dextrose with a pH of 7.35 and osmolarity of 300 mOsmol/kg. The external (bath) solution contains in (mM): 145 NaCl, 4 KCl, 1.8 CaCl2, 1 MgCl2, 10 dextrose, 10 HEPES, with a pH of 7.35 and osmolarity of 310 mOsmol/kg. Experiments are carried out at 23-25° C.
Compound stocks are routinely made by the Gilead Sample Bank in vials to 10 mM in dimethyl sulfoxide (DMSO). In some cases, when compounds are not soluble in DMSO, they are made in 100% ethanol. Stocks are sonicated as necessary. […]
Cells are allowed to stabilize for 10 min after establishment of the whole-cell configuration before current is measured. The test compound is applied 2 times at 60 second intervals. After the second compound addition, a 200 second wait period was imposed to allow for equilibration. Leak currents are subtracted by using an online P/4 procedure and all currents are low-pass Bessel filtered at 5 kHz and digitized at […].
Use-dependent block of Nav1.2 peak current is measured during pulse number 20 of a voltage pulse train (0 mV, 20 ms, 20 pulses, 25 Hz) from a holding potential of −120 mV. Currents are normalized to the peak current recorded in response to the first pulse in each frequency train. The voltage protocol for UDB was performed in the absence and presence of compound and percentage inhibition was calculated with respect to the compound free condition. Results are presented as mean percentage inhibition and data analysis is performed using QPatch Assay Software 4.0, and Excel 2002 (Microsoft, Seattle, Wash., U.S.A.).

[1] = biological target: T1, wild-type human cardiac sodium channel, hNav1.5 (Homo sapiens, UniProt Q14524); test: Late INa screening assay (QPatch whole cell patch clamp, Tefluthrin-induced late current); settings: HEK293 hNav1.5, percent block of late INa
T1 sequence (Q14524 whole entry): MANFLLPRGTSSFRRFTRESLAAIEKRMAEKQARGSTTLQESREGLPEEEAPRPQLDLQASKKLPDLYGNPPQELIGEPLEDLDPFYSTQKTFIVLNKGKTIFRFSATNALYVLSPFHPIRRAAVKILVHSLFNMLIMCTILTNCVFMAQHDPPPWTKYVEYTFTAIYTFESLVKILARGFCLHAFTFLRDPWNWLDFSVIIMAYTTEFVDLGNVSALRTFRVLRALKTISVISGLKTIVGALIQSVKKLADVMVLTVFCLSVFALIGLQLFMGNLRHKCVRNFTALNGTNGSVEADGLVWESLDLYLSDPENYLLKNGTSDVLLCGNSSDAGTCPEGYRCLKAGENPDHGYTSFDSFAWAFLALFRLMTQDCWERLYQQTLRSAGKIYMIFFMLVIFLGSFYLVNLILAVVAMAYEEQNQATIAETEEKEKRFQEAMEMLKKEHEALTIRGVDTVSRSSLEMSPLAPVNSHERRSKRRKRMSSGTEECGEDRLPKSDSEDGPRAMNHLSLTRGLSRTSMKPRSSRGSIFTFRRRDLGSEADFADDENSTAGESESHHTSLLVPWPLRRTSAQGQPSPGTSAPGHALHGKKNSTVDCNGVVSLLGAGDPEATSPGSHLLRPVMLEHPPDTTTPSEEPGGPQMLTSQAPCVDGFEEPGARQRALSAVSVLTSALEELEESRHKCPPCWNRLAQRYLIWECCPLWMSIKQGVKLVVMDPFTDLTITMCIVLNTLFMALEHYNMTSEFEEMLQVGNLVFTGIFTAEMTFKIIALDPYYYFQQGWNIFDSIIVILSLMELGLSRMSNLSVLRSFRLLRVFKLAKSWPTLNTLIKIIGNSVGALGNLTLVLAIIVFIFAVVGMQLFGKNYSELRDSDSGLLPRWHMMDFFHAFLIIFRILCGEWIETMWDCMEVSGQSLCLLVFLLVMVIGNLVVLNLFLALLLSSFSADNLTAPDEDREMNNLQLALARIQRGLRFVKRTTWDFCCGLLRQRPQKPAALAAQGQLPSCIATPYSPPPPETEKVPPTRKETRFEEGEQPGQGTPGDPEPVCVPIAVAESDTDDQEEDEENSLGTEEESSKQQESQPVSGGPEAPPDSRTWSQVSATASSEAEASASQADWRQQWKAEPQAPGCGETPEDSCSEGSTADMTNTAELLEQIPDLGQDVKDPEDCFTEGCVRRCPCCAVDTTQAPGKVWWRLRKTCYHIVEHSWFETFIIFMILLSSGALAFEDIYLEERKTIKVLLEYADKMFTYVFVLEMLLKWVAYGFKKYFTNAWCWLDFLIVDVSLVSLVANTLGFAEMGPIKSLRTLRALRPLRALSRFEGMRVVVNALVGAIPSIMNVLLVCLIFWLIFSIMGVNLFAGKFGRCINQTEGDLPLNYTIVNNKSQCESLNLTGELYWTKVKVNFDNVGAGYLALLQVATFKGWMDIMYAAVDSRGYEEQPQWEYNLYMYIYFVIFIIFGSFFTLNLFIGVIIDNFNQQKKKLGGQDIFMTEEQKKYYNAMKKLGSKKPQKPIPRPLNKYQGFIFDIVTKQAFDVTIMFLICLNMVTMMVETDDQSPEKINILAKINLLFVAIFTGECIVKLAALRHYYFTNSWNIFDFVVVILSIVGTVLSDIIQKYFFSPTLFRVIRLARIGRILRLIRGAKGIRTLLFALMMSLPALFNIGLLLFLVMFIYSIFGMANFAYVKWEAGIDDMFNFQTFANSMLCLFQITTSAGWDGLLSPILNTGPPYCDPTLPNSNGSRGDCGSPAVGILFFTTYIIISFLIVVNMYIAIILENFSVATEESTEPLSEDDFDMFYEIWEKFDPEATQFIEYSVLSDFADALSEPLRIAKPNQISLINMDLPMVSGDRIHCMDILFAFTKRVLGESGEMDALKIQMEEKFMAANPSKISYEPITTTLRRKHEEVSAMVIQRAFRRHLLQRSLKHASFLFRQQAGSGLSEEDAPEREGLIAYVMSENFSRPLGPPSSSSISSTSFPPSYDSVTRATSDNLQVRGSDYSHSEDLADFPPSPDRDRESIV
Procedure: (§1) The cardiac late sodium current (Late INa) and peak sodium current (Peak INa) assays are performed on an automated electrophysiology platform, QPatch 16X or QPatch HT (Sophion Bioscience, Copenhagen, Denmark) using the whole cell patch clamp technique to measure currents through the cell membrane. The assay uses an HEK293 (human embryonic kidney) cell line heterologously expressing the wild-type human cardiac sodium channel, hNav1.5, purchased from Millipore (Billerica, Mass.). No beta subunits were coexpressed with the Na channel alpha subunit. Cells are maintained with standard tissue culture procedures and stable channel expression is maintained with 400 μg/mL Geneticin in the culture medium. Experiments are carried out at 23-25° C.
(§2) For both the Late INa and Peak INa assays, series resistance compensation is set to 100% and series resistance and whole-cell compensation are performed automatically. Currents are digitized at 25 kHz and low-pass filtered at 5 kHz and stored in the Sophion Bioscience Oracle database (Sophion Bioscience, Copenhagen, Denmark). Analysis is performed using QPatch Assay software and data are compiled in Excel 2010 (Microsoft, Seattle, Wash., U.S.A.).
(§3) Compound stocks are routinely made by the Gilead Sample Bank in vials to 10 mM in dimethyl sulfoxide (DMSO). In some cases, when compounds are not soluble in DMSO, they are made in 100% ethanol. Stocks are sonicated as necessary. The extracellular solution for screening Late INa is composed of: 140 mM NaCl, 4 mM KCl, 1.8 mM CaCl2, 1 mM MgCl2, 10 mM HEPES and 10 mM Dextrose with pH adjusted to 7.35 using NaOH. The intracellular solution contains: 105 mM CsF, 20 mM CsCl, 10NaF, 2 mM EGTA, 10 mM HEPES and 10 mM Dextrose with pH adjusted to 7.35 with CsOH. Compounds are diluted in extracellular solution using a MicroLab Nimbus (Hamilton Robotics, Reno, Nev.) to between 0.3 and 3 μM in glass vials and transferred to glass well plates before robotic addition to the cells. The 0 mM Na extracellular solution (0Na-ECF) used at the end of each experiment for the Late INa and Peak INa assays to measure baseline current contains: 140 Choline-Cl; 4 mM KCl, 1.8 mM CaCl2; 1 mM MgCl2; 10 mM HEPES and 10 mM Dextrose with pH was adjusted to 7.35 with CsOH.
For the Late INa assay, sodium channels are activated every 10 seconds (0.1 Hz) by depolarizing the cell membrane to −20 mV for 250 milliseconds (ms) from a holding potential of −120 mV.
Compounds were tested to determine their activity in blocking the late sodium current. Late INa was generated by adding 10 μM Tefluthrin (pyrethroid) to the extracellular solution. For the purposes of the screening, Late INa is defined as the mean current between […] during the voltage step to −20 mV. After establishing the whole cell recording configuration, Late INa activator is added to each well 4 times over a 15 minute period so that the late component of the Na current reaches a stable value. Compounds were then added (typically at 0.3 or 1 μM), in the presence of the Late Na^+ activator, with 3 additions over the course of 5 minutes. Measurements were made at the end of exposure to the third compound addition and values were normalized to the current level when all Na^+ was removed from the extracellular solution after two additions of 0Na-ECF.
Results are reported as percent block of late INa and results were analyzed by incorporating rundown correction for the Late INa.

[2] = biological target: T1, wild-type human cardiac sodium channel, hNav1.5; test: Peak INa screening assay (tonic block and use-dependent block)
Procedure: as §1, §2, §3
Compounds were evaluated for their effect Nav1.5 Peak INa. It is contemplated that the compounds of Formula I avoid significant block of peak INa. Since the peak INa in the cells used herein can be very large, introducing artifacts in the recording, the concentration of Na^+ in the bath can be reduced to 40 mM by isosmotic replacement of Na^+ with Choline (see below).
Tonic Block (TB) of Peak INa was measured using a voltage step to −20 mV from a holding potential of −100 mV at a low stimulation frequency of 0.1 Hz. Use-Dependent Block (UDB) of Peak INa was measured during pulse number 50 of a pulse train (−20 mV, 20 ms, 50 pulses, 3 Hz) from a holding potential of −100 mV.
The extracellular solution for screening Peak INa is composed of: 40 mM NaCl, 100 mM Choline-Cl, 4 mM KCl, 1.8 mM CaCl2, 1 mM MgCl2 10 mM HEPES and 10 mM Dextrose with pH adjusted to 7.35 using NaOH. The intracellular solution used for the Peak INa assay is the same as outlined for the Late INa assay (see above).
After establishing the whole cell recording configuration, channels were stimulated to open with low frequency (0.1 Hz) so that the recording can be monitored and the extent to which the recording has stabilized can be assessed.
The test compound is then applied at 1 or 3 μM and was added 2 times at 60 second intervals. After the second compound addition, a 200 second wait period was imposed to allow for equilibration. Voltage protocols for TB and UDB are were performed in the absence and presence of compound and TB and UDB are calculated with respect to the compound free condition. Both TB and UDB were analyzed by incorporating rundown correction for the peak INa.

[3] = tonic block of Peak INa, 0.1 Hz, holding -100 mV, read-out: Peak TB 3 uM
[4] = use-dependent block of Peak INa, 3 Hz, pulse 50, read-out: Peak UDB 3 Hz 3 uM

| SMILES | inhibition at 10 µM (hNav1.1 (SCN1A)) [%] | inhibition at 0.3 µM [1] [%] | inhibition at 1 µM [1] [%] | inhibition at 3 µM [2, 3] [%] | inhibition at 3 µM [2, 4] [%] |
| --- | --- | --- | --- | --- | --- |
| Cc1cccc(CNc2noc3ccc(-c4ccc(OC(F)(F)F)cc4)cc23)n1 [Example 129, N-((6-methylpyridin-2-yl)methyl)-5-(4-(trifluoromethoxy)phenyl)benzo[d]isoxazol-3-amine] | 33.5 | 34.3 | 67.5 | – | – |
| FC(F)(F)Oc1ccc(-c2ccc3onc(OCCn4ccnc4)c3c2)cc1 [Example 55, 3-(2-(1H-imidazol-1-yl)ethoxy)-5-(4-(trifluoromethoxy)phenyl)benzo[d]isoxazole] | 79.8 | 45.4 | 59.9 | 15.1 | 5.13 |
| FC(F)(F)Oc1ccc(-c2ccc3onc(OC[C@@H]4CCCN4)c3c2)cc1 [Example 108, (S)-3-(pyrrolidin-2-ylmethoxy)-5-(4-(trifluoromethoxy)phenyl)benzo[d]isoxazole] | 89.2 | 30.1 | 83.5 | 62.6 | 69.3 |
| O=C1CC(COc2noc3ccc(-c4ccc(OC(F)(F)F)cc4)cc23)CN1 (stereo not drawn) [Example 46, 4-(((5-(4-(trifluoromethoxy)phenyl)benzo[d]isoxazol-3-yl)oxy)methyl)pyrrolidin-2-one] | 78.4 | – | 36.8 | 23.7 | 13.9 |
| CN1CC(COc2noc3ccc(-c4ccc(OC(F)(F)F)cc4)cc23)CC1=O (stereo not drawn) [Example 56, 1-methyl-4-(((5-(4-(trifluoromethoxy)phenyl)benzo[d]isoxazol-3-yl)oxy)methyl)pyrrolidin-2-one] | 83.6 | 16.1 | 57.8 | 30.4 | 31.4 |
| FC(F)(F)Oc1ccc(-c2ccc3onc(Oc4ccccn4)c3c2)cc1 [Example 125, 3-(pyridin-2-yloxy)-5-(4-(trifluoromethoxy)phenyl)benzo[d]isoxazole] | < 5 | – | 41.8 | – | – |
| Cc1cc(-c2ccc(OC(F)(F)F)cc2)cc2c(OCCN3CCCC3=O)noc12 [Example 88, 1-(2-((7-methyl-5-(4-(trifluoromethoxy)phenyl)benzo[d]isoxazol-3-yl)oxy)ethyl)pyrrolidin-2-one] | 66.7 | – | 47.7 | 20.8 | 19.5 |
| Cc1nccn1CCOc1noc2ccc(-c3ccc(OC(F)(F)F)cc3)cc12 [Example 57, 3-(2-(2-methyl-1H-imidazol-1-yl)ethoxy)-5-(4-(trifluoromethoxy)phenyl)benzo[d]isoxazole] | 82.5 | 17 | 57.3 | 22.1 | 37.1 |
